Converted amounts (≈) assume the structure as drawn. Structures can show the parent of a compound that is named as a salt.
Key:
Experiment in all cases: Minimal inhibitory concentration, agar dilution method
Assay type in all cases: cell-based
[1] = test system: Klebsiella pneumoniae PCI602
Source text: (§1) When determined according to the agar dilution method, the penicillins (I) afford the minimal inhibitory concentrations against test microorganisms as shown in Table 2.

Proteus miravilis GN2425 = test system: Proteus miravilis GN2425
Proteus vulgaris HV19 = test system: Proteus vulgaris HV19
Escherichia coli NIHJ = test system: Escherichia coli NIHJ
Source text: as §1

[2] = test system: Staphylococcus aureus 209P
Source text: as §1

[3] = test system: Pseudomonas aeruginosa 104
Source text: as §1

Row | SMILES | MIC [1] [µg/mL] | MIC (Proteus miravilis GN2425) [µg/mL] | MIC (Proteus vulgaris HV19) [µg/mL] | MIC (Escherichia coli NIHJ) [µg/mL] | MIC [2] [µg/mL] | MIC [3] [µg/mL]
1 | CC1(C)S[C@@H]2[C@H](NC(=O)C(C(=O)O)c3ccccc3)C(=O)N2[C@H]1C(=O)O (stereo partly drawn) [Carbenicillin, reference compound] | 200 (≈ 529 µM) |  |  |  |  | 
2 | CC1(C)S[C@@H]2[C@H](NC(=O)[C@H](NC(=O)c3cnc4cccnc4c3O)c3cccc(N)c3)C(=O)N2[C@H]1C(=O)O [Example 1, D-α-(4-hydroxy-1,5-naphthyridine-3-carboxamido)-m-aminobenzylpenicillin sodium salt] | 6.25 | 0.78 | 0.025 | 0.78 | 1.56 | 1.56
3 | CC1(C)S[C@@H]2[C@H](NC(=O)[C@H](NC(=O)c3cnc4cccnc4c3O)c3ccc(N)cc3)C(=O)N2[C@H]1C(=O)O [Example 2, D-α-(4-hydroxy-1,5-naphthyridine-3-carboxamido)-p-aminobenzylpenicillin sodium salt] | 12.5 | 1.56 | 0.025 | 0.78 | 1.56 | 1.56
4 | CCOC(=O)Oc1c(C(=O)N[C@@H](C(=O)N[C@@H]2C(=O)N3[C@@H]2SC(C)(C)[C@@H]3C(=O)O)c2ccc(OC)cc2)cnc2cccnc12 [Example 3, D-α-(4-ethoxycarbonyloxy-1,5-naphthyridine-3-carboxamido)-p-methoxybenzylpenicillin] | 12.5 (≈ 20 µM) | 6.25 (≈ 10 µM) | 0.1 (≈ 0.16 µM) | 3.13 (≈ 5.02 µM) | 1.56 (≈ 2.5 µM) | 3.13 (≈ 5.02 µM)
5 | COc1ccc([C@@H](NC(=O)c2cnc3cccnc3c2O)C(=O)N[C@@H]2C(=O)N3[C@@H]2SC(C)(C)[C@@H]3C(=O)O)cc1 [Example 4, D-α-(4-hydroxy-1,5-naphthyridine-3-carboxamido)-p-methoxybenzylpenicillin sodium salt] | 12.5 | 12.5 | 0.1 | 3.13 | 1.56 | 3.13
6 | CN(C)c1ccc([C@@H](NC(=O)c2cnc3cccnc3c2O)C(=O)N[C@@H]2C(=O)N3[C@@H]2SC(C)(C)[C@@H]3C(=O)O)cc1 [Example 5, D-α-(4-hydroxy-1,5-naphthyridine-3-carboxamido)-p-dimethylaminobenzylpenicillin sodium salt] | 6.25 | 6.25 | 0.1 | 3.13 | 1.56 | 1.56
7 | CC1(C)S[C@@H]2[C@H](NC(=O)[C@H](NC(=O)c3nnc4ccccc4c3O)c3cccc(N)c3)C(=O)N2[C@H]1C(=O)O [Example 6, D-α-(4-hydroxycinnoline-3-carboxamido)-m-aminobenzylpenicillin] | 12.5 (≈ 23.3 µM) | 12.5 (≈ 23.3 µM) | 0.78 (≈ 1.45 µM) | 6.25 (≈ 11.6 µM) | 1.56 (≈ 2.91 µM) | 6.25 (≈ 11.6 µM)
8 | CC(=O)Nc1cccc([C@@H](NC(=O)c2cnc3ccccc3c2OC(=O)C(C)(C)C)C(=O)N[C@@H]2C(=O)N3[C@@H]2SC(C)(C)[C@@H]3C(=O)O)c1 [Example 7, D-α-(4-pivaloyloxyquinoline-3-carboxamido)-m-acetylaminobenzylpenicillin] | 6.25 (≈ 9.44 µM) | 6.25 (≈ 9.44 µM) | 0.2 (≈ 0.302 µM) | 3.13 (≈ 4.73 µM) | 0.78 (≈ 1.18 µM) | 6.25 (≈ 9.44 µM)
9 | CCNc1ccc(C(NC(=O)c2cnc3cccnc3c2O)C(=O)N[C@@H]2C(=O)N3[C@@H]2SC(C)(C)[C@@H]3C(=O)O)cc1 (stereo partly drawn) [Example 10] | 12.5 (≈ 22.1 µM) | 0.78 (≈ 1.38 µM) | 0.05 (≈ 0.0886 µM) | 0.78 (≈ 1.38 µM) | 1.56 (≈ 2.76 µM) | 1.56 (≈ 2.76 µM)
10 | CC1(C)S[C@@H]2[C@H](NC(=O)C(NC(=O)c3cnc4cccnc4c3O)c3cccc(I)c3)C(=O)N2[C@H]1C(=O)O (stereo partly drawn) [Example 11] | 12.5 (≈ 19.3 µM) | 1.56 (≈ 2.41 µM) | 0.05 (≈ 0.0772 µM) | 1.56 (≈ 2.41 µM) | 1.56 (≈ 2.41 µM) | 3.13 (≈ 4.83 µM)
11 | CCOC(=O)Oc1c(C(=O)NC(C(=O)N[C@@H]2C(=O)N3[C@@H]2SC(C)(C)[C@@H]3C(=O)O)c2cccc(Cl)c2)cnc2cccnc12 (stereo partly drawn) [Example 12] | 12.5 (≈ 19.9 µM) | 1.56 (≈ 2.48 µM) | 0.05 (≈ 0.0796 µM) | 1.56 (≈ 2.48 µM) | 1.56 (≈ 2.48 µM) | 3.13 (≈ 4.98 µM)
12 | Cc1ccc(C(NC(=O)c2cnc3cccnc3c2O)C(=O)N[C@@H]2C(=O)N3[C@@H]2SC(C)(C)[C@@H]3C(=O)O)cc1 (stereo partly drawn) [Example 13] | 6.25 (≈ 11.7 µM) | 1.56 (≈ 2.91 µM) | 0.05 (≈ 0.0934 µM) | 0.78 (≈ 1.46 µM) | 1.56 (≈ 2.91 µM) | 1.56 (≈ 2.91 µM)
13 | CC1(C)S[C@@H]2[C@H](NC(=O)C(NC(=O)c3nc4ccccc4nc3O)c3cccc(N)c3)C(=O)N2[C@H]1C(=O)O (stereo partly drawn) [Example 14] | 12.5 (≈ 23.3 µM) | 12.5 (≈ 23.3 µM) | 0.78 (≈ 1.45 µM) | 3.13 (≈ 5.83 µM) | 0.78 (≈ 1.45 µM) | 0.78 (≈ 1.45 µM)
14 | CC1(C)S[C@@H]2[C@H](NC(=O)C(NC(=O)c3cnc4ccccc4c3O)c3cccc(N)c3)C(=O)N2[C@H]1C(=O)O (stereo partly drawn) [Example 15] | 6.25 (≈ 11.7 µM) | 3.13 (≈ 5.84 µM) | 0.2 (≈ 0.373 µM) | 3.13 (≈ 5.84 µM) | 0.78 (≈ 1.46 µM) | 3.13 (≈ 5.84 µM)
15 | Cc1ccc2c(O)c(C(=O)NC(C(=O)N[C@@H]3C(=O)N4[C@@H]3SC(C)(C)[C@@H]4C(=O)O)c3cccc(N)c3)cnc2c1 (stereo partly drawn) [Example 16] |  | 3.13 (≈ 5.69 µM) | 0.39 (≈ 0.71 µM) | 6.25 (≈ 11.4 µM) | 0.78 (≈ 1.42 µM) | 3.13 (≈ 5.69 µM)
16 | CC1(C)S[C@@H]2[C@H](NC(=O)C(NC(=O)c3cnc4cc(Cl)ccc4c3O)c3ccc(N)cc3)C(=O)N2[C@H]1C(=O)O (stereo partly drawn) [Example 17] | 6.25 (≈ 11 µM) | 3.13 (≈ 5.49 µM) | 0.2 (≈ 0.351 µM) | 3.13 (≈ 5.49 µM) | 0.78 (≈ 1.37 µM) | 3.13 (≈ 5.49 µM)

Row | SMILES | MIC [1] [µg/mL] | MIC (Proteus miravilis GN2425) [µg/mL] | MIC (Proteus vulgaris HV19) [µg/mL] | MIC (Escherichia coli NIHJ) [µg/mL] | MIC [2] [µg/mL] | MIC [3] [µg/mL]
17 | Cc1ccc2c(O)c(C(=O)NC(C(=O)N[C@@H]3C(=O)N4[C@@H]3SC(C)(C)[C@@H]4C(=O)O)c3cccc(N)c3)cnc2n1 (stereo partly drawn) [Example 18] | 6.25 (≈ 11.4 µM) | 1.56 (≈ 2.83 µM) | 0.025 (≈ 0.0454 µM) | 1.56 (≈ 2.83 µM) | 1.56 (≈ 2.83 µM) | 1.56 (≈ 2.83 µM)
18 | Cc1ccc2ncc(C(=O)NC(C(=O)N[C@@H]3C(=O)N4[C@@H]3SC(C)(C)[C@@H]4C(=O)O)c3cccc(N)c3)c(O)c2n1 (stereo partly drawn) [Example 19] | 6.25 (≈ 11.4 µM) | 0.78 (≈ 1.42 µM) | 0.025 (≈ 0.0454 µM) | 0.78 (≈ 1.42 µM) | 1.56 (≈ 2.83 µM) | 0.78 (≈ 1.42 µM)
19 | COc1ccc2c(O)c(C(=O)NC(C(=O)N[C@@H]3C(=O)N4[C@@H]3SC(C)(C)[C@@H]4C(=O)O)c3cccc(N)c3)cnc2c1 (stereo partly drawn) [Example 20] | 6.25 (≈ 11.1 µM) | 3.13 (≈ 5.53 µM) | 0.1 (≈ 0.177 µM) | 3.13 (≈ 5.53 µM) | 0.78 (≈ 1.38 µM) | 3.13 (≈ 5.53 µM)
20 | Cc1ccc2ncc(C(=O)NC(C(=O)N[C@@H]3C(=O)N4[C@@H]3SC(C)(C)[C@@H]4C(=O)O)c3ccc(N)cc3)c(O)c2n1 (stereo partly drawn) [Example 21] | 3.13 (≈ 5.68 µM) | 1.56 (≈ 2.83 µM) | 0.025 (≈ 0.0454 µM) | 0.78 (≈ 1.42 µM) | 1.56 (≈ 2.83 µM) | 0.78 (≈ 1.42 µM)
21 | CN(C)c1ccc2ncc(C(=O)NC(C(=O)N[C@@H]3C(=O)N4[C@@H]3SC(C)(C)[C@@H]4C(=O)O)c3cccc(N)c3)c(O)c2n1 (stereo partly drawn) [Example 22] | 3.13 (≈ 5.4 µM) | 0.78 (≈ 1.35 µM) | 0.025 (≈ 0.0431 µM) | 0.78 (≈ 1.35 µM) | 1.56 (≈ 2.69 µM) | 0.78 (≈ 1.35 µM)
22 | COc1ccc2ncc(C(=O)NC(C(=O)N[C@@H]3C(=O)N4[C@@H]3SC(C)(C)[C@@H]4C(=O)O)c3cccc(N)c3)c(O)c2n1 (stereo partly drawn) [Example 23] | 6.25 (≈ 11 µM) | 1.56 (≈ 2.75 µM) | 0.05 (≈ 0.0882 µM) | 0.78 (≈ 1.38 µM) | 1.56 (≈ 2.75 µM) | 1.56 (≈ 2.75 µM)
23 | CSc1ccc2ncc(C(=O)NC(C(=O)N[C@@H]3C(=O)N4[C@@H]3SC(C)(C)[C@@H]4C(=O)O)c3ccc(N)cc3)c(O)c2n1 (stereo partly drawn) [Example 24] | 6.25 (≈ 10.7 µM) | 0.78 (≈ 1.34 µM) | 0.025 (≈ 0.0429 µM) | 0.78 (≈ 1.34 µM) | 1.56 (≈ 2.68 µM) | 1.56 (≈ 2.68 µM)
24 | CC1(C)S[C@@H]2[C@H](NC(=O)C(NC(=O)c3cnc4cc([N+](=O)[O-])ccc4c3O)c3cccc(N)c3)C(=O)N2[C@H]1C(=O)O (stereo partly drawn) [Example 25] | 12.5 (≈ 21.5 µM) | 3.13 (≈ 5.39 µM) | 0.2 (≈ 0.344 µM) | 3.13 (≈ 5.39 µM) | 0.78 (≈ 1.34 µM) | 3.13 (≈ 5.39 µM)
25 | CC(=O)Nc1ccc2ncc(C(=O)NC(C(=O)N[C@@H]3C(=O)N4[C@@H]3SC(C)(C)[C@@H]4C(=O)O)c3cccc(N)c3)c(O)c2n1 (stereo partly drawn) [Example 26] | 6.25 (≈ 10.5 µM) | 0.78 (≈ 1.31 µM) | 0.025 (≈ 0.0421 µM) | 0.78 (≈ 1.31 µM) | 1.56 (≈ 2.63 µM) | 0.78 (≈ 1.31 µM)
26 | CC1(C)S[C@@H]2[C@H](NC(=O)C(NC(=O)c3cnc4cc(N)ccc4c3O)c3cccc(N)c3)C(=O)N2[C@H]1C(=O)O (stereo partly drawn) [Example 27] | 12.5 (≈ 22.7 µM) | 3.13 (≈ 5.68 µM) | 0.39 (≈ 0.708 µM) | 3.13 (≈ 5.68 µM) | 0.78 (≈ 1.42 µM) | 3.13 (≈ 5.68 µM)
27 | CC1(C)SC2C(NC(=O)C(NC(=O)c3cnc4ccc(N)nc4c3O)c3cccc(N)c3)C(=O)N2C1C(=O)O (stereo not drawn) [Example 29] | 6.25 (≈ 11.3 µM) | 0.78 (≈ 1.41 µM) | 0.025 (≈ 0.0453 µM) | 0.78 (≈ 1.41 µM) | 1.56 (≈ 2.83 µM) | 0.78 (≈ 1.41 µM)
28 | CC1(C)S[C@@H]2[C@H](NC(=O)C(NC(=O)c3cnc4ccc(O)nc4c3O)c3cccc(N)c3)C(=O)N2[C@H]1C(=O)O (stereo partly drawn) [Example 30] | 6.25 (≈ 11.3 µM) | 1.56 (≈ 2.82 µM) | 0.05 (≈ 0.0905 µM) | 0.78 (≈ 1.41 µM) | 1.56 (≈ 2.82 µM) | 1.56 (≈ 2.82 µM)
29 | CC1(C)S[C@@H]2[C@H](NC(=O)C(NC(=O)c3cc4ccccc4nc3O)c3cccc(N)c3)C(=O)N2[C@H]1C(=O)O (stereo partly drawn) [Example 31] | 12.5 (≈ 23.3 µM) | 3.13 (≈ 5.84 µM) | 0.39 (≈ 0.728 µM) | 3.13 (≈ 5.84 µM) | 0.78 (≈ 1.46 µM) | 3.13 (≈ 5.84 µM)
30 | COc1nc(OC)c2c(O)c(C(=O)NC(C(=O)NC3C(=O)N4C3SC(C)(C)C4C(=O)O)c3ccc(N)cc3)cnc2n1 (stereo not drawn) [Example 32] | 12.5 (≈ 20.9 µM) | 3.13 (≈ 5.24 µM) | 0.05 (≈ 0.0837 µM) | 3.13 (≈ 5.24 µM) | 1.56 (≈ 2.61 µM) | 3.13 (≈ 5.24 µM)
31 | CC1(C)SC2C(NC(=O)C(NC(=O)c3cnc4cncnc4c3O)c3cccc(N)c3)C(=O)N2C1C(=O)O (stereo not drawn) [Example 33] | 6.25 (≈ 11.6 µM) | 0.78 (≈ 1.45 µM) | 0.025 (≈ 0.0465 µM) | 0.78 (≈ 1.45 µM) | 1.56 (≈ 2.9 µM) | 0.78 (≈ 1.45 µM)

Reference: patent US3992371A, “Penicillins substituted with heterocyclic and substituted phenyl groups” (Sumitomo Chemical Company, Limited, priority 1973, dated 1976)
